Test [1] deals with Enterobacteriaceae isolates. In kind it is cell-based. The note with it: for resistance in the isolates (in words): all Enterobacteriaceae isolates, excluding intrinsic resistance. As for the experimental part:
Urine culture, organism identification, AST, and ESBL confirmatory testing. Standard microbiological procedures were performed by the clinical laboratory as part of routine care for all urine samples used in this study, per the clinical laboratory's standard operating procedures. First, 1 μL or 10 μL of urine sample was plated on standard agar plates (blood agar and eosin methylene blue agar biplate), then visually inspected the next day for significant growth indicative of a UTI (≥10^4 CFU/mL cutoff applied). The MiscroScan WalkAway system (Beckman Coulter) was utilized for bacterial identification and AST of GNB and select GPB causing UTI. […] AST interpretations were based on CLSI's 2017 guidelines.

Test [2] addresses T1, TEM-1 (Escherichia coli, UniProt P62593). The note with it: cited from earlier work.
Test [3] addresses T1, TEM-1. The conditions noted are these: cited from earlier work. This is another data set of the same source.
Another test concerns the target B. cereus I (Bacillus cereus, UniProt P00809). The note with it: cited from earlier work.
Test [4] concerns the target T2, SHV-1 (Klebsiella pneumoniae, UniProt P0AD64). The note with it: cited from earlier work.
For the next test, the target named is S. aureus PC1 (Staphylococcus aureus, UniProt P00807). The conditions noted are these: cited from earlier work.
The target in test [5] is T2, SHV-1. The conditions noted are these: cited from earlier work. The source holds these as a separate data set.
Test [6] concerns K. pneumoniae clinical isolates. Description: DETECT with β-lactamase inhibitors (clavulanic acid). It counts as cell-based. The conditions noted are these: original score/inhibitor score, 30 min. As for the experimental part:
(§1) A solution of sodium clavulanate was prepared to 1 mg/400 μL in “buffer 1”, and 4 μL of this solution was added to both the sample and control well for each isolate tested, two min prior to addition of β-lactamase probe or acetonitrile to the sample and control well, respectively. […]

Test [7] concerns E. coli clinical isolates. Described as above. The note with it: original score/inhibitor score, 30 min. It counts as cell-based. As for the experimental part:
as §1

Where two headings read alike, the source gives them in different places.

The values that follow come from US20220177947A1, “Compounds to Identify Beta-Lactamases, and Methods of Use Thereof” (priority 2019, published 2022).

T2 sequence (P0AD64 22-286): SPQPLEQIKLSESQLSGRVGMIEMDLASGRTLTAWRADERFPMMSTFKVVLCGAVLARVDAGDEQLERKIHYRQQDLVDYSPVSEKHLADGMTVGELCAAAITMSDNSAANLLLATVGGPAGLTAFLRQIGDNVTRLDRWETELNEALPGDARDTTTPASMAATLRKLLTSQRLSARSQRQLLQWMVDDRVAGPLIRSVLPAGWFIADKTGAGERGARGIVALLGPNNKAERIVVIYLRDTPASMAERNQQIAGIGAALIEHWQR
T1 sequence (P62593 24-286 limits assumed): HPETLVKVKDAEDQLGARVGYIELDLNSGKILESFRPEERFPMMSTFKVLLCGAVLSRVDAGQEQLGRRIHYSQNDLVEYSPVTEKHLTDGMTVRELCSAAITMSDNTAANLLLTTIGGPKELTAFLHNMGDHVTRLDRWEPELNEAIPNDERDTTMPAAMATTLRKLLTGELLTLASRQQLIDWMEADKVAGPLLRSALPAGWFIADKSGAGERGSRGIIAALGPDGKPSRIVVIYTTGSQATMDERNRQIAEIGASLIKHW
Sequence of S. aureus PC1 (P00807 25-281): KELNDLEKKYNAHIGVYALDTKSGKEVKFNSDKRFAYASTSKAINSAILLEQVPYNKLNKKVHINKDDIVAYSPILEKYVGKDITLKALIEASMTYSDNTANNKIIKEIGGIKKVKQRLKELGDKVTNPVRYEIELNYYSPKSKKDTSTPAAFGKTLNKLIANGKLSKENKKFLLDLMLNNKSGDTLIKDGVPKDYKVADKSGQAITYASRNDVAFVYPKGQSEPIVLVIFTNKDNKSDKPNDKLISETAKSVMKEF
Sequence of B. cereus I (P00809 28-306): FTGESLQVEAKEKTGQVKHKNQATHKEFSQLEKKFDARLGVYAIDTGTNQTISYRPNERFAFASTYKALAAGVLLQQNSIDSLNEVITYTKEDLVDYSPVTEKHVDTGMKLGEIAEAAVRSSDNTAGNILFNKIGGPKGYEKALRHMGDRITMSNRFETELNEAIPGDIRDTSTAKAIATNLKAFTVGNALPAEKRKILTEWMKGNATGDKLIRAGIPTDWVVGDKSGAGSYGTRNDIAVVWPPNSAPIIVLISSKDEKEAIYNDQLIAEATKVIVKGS

Consider piperacillin/tazobactam, for which the “resistance in the isolates (in words)” value in test [1] is given as “not detected”.

For the molecule `CN(C)c1cc(NC(=O)CNC(C)(C)C)c(O)c2c1C[C@H]1C[C@H]3[C@H](N(C)C)C(O)=C(C(N)=O)C(=O)[C@@]3(O)C(O)=C1C2=O` [tigecycline], in test [1], the “resistance in the isolates (in words)” value is listed as “no tigecycline-resistant isolates were identified”.

Take gentamicin: the “resistance identified, number of isolates” value in test [1] (CTX-M-producing bacteria) stood at 5; in test [1] (bacteria lacking CTX-Ms), 7. For the same molecule, the “resistance identified, percent of isolates” value in [1] (CTX-M-producing bacteria) is 45%; in test [1] (bacteria lacking CTX-Ms), 7%.

On to `O=C(O)[C@H]1/C(=C/CO)O[C@@H]2CC(=O)N21` [clavulanic acid], for which the “IC50 fold lower than that for sulbactam” value at TEM-1 [2] is 60 fold; on SHV-1 [5], 580 fold. In addition, the “turnover number (tn), inhibitor molecules to inactivate one β-lactamase enzyme” value is 160 on TEM-1 [3], “more than 16,000” at B. cereus I, 60 on SHV-1 [4] and “one” on S. aureus PC1. Besides, the “Times-change in DETECT score, with clavulanic acid” value (shortened to “Times-change in DETECT score”) in test [6] (isolate B7: KPC-2, CTX-M-15, TEM-1B, SHV-11) turned out to be 2.3; in test [6] (isolate B14: KPC-2, CTX-M-9, TEM-1A, SHV-11) it was 2.4; in [6] (isolate B23: KPC-2, CTX-M-15, TEM-1B, SHV-11, OXA-1) it was 4.4; in [6] (isolate FB13: CTX-M-15, CTX-M-8, TEM-1A, SHV-25/121, OXA-1) it was 15.3; in test [6] (isolate FB90: CTX-M-15, CTX-M-8, TEM-1A, SHV-25/121, OXA-1), 14.2; in [6] (isolate HAF66: CTX-M-8, TEM-1, SHV-85) it was 10.5. In addition, the “Times-change in DETECT score” value was 8.2 in test [6] (isolate HAF102: CTX-M-8, TEM-1, SHV-76); 5.9 in [6] (isolate HCD309: CTX-M-8, TEM-1, SHV-1); 17.6 in [6] (isolate HCD405: CTX-M-15, SHV-25/121, OXA-1); 23.0 in test [6] (isolate HON257: CTX-M-2, TEM-15, SHV-25/121); 3.8 in [6] (isolate SF681: CTX-M-15, TEM-1B, SHV-11, OXA-1); 1.6 in [7] (isolate CDC-081: CMY-2, TEM-1B). In addition, the “Times-change in DETECT score” value in [7] (isolate CDC-085: CMY-2) was 1.3; in test [7] (isolate CDC-086: CTX-M-14, TEM-1B), 10.7; in test [7] (isolate CDC-089: CMY-2), 1.6; in [7] (isolate D14: CTX-M-15), 5.4; in [7] (isolate D129: CTX-M-2, TEM, SHV), 14.2; in test [7] (isolate D270: CTX-M-17), 12.9. Also, the “Times-change in DETECT score” value is listed as 9.9 in [7] (isolate D304: CTX-M-55/57); 10.3 in test [7] (isolate D333: CTX-M-14/17/18); 4.9 in test [7] (isolate D362: CTX-M-15); 3.2 in test [7] (isolate D497: CTX-M-15); 1.7 in test [7] (isolate D500: CTX-M-27, CMY-2/130); 1.5 in test [7] (isolate SF141: CMY-2). The “Times-change in DETECT score” value was determined as 16.8 in [7] (isolate SF148: CTX-M-14); 1.2 in test [7] (isolate SF207: CMY-2); 5.7 in test [7] (isolate SF325: CTX-M-14/17/18, OXA); 4.8 in test [7] (isolate SF410: CTX-M-15); 15.5 in test [7] (isolate SF468: CTX-M-14, TEM-1); 13.0 in [7] (isolate SF473: CTX-M-14/17/18). In addition, the “Times-change in DETECT score” value is listed as 9.9 in test [7] (isolate SF487: CTX-M-14) and 5.8 in test [7] (isolate SF674: CTX-M-15).

Take trimethoprim/sulfamethoxazole: in test [1] (CTX-M-producing bacteria), the “resistance identified, number of isolates” value worked out at 8 and the “resistance identified, percent of isolates” value turned out to be 73%. Besides, in test [1] (bacteria lacking CTX-Ms), the “resistance identified, number of isolates” value was found to be 21 and the “resistance identified, percent of isolates” value amounted to 22%.

On to `CO[C@@]1(NC(=O)Cc2cccs2)C(=O)N2C(C(=O)O)=C(COC(N)=O)CS[C@@H]21` [cefoxitin], for which the “resistance in the isolates (in words)” value in test [1] was “rare”.

With `C[C@H]1COc2c(N3CCN(C)CC3)c(F)cc3c(=O)c(C(=O)O)cn1c23` [levofloxacin], in test [1] (CTX-M-producing bacteria), the “resistance identified, number of isolates” value was found to be 8 and the “resistance identified, percent of isolates” value was 73%. For the same molecule, in [1] (bacteria lacking CTX-Ms), the “resistance identified, number of isolates” value amounted to 13 and the “resistance identified, percent of isolates” value came to 14%.

With `CC1(C)[C@H](C(=O)O)N2C(=O)C[C@H]2S1(=O)=O` [sulbactam], the “turnover number (tn), inhibitor molecules to inactivate one β-lactamase enzyme” value at TEM-1 [3] is listed as 10,000; at SHV-1 [4], 13,000.

Consider `NC[C@H]1O[C@H](O[C@H]2[C@H](O)[C@@H](O[C@H]3O[C@H](CO)[C@@H](O)[C@H](N)[C@H]3O)[C@H](N)C[C@@H]2N)[C@H](N)C[C@@H]1O` [tobramycin], for which, in [1] (CTX-M-producing bacteria), the “resistance identified, number of isolates” value is 5 and the “resistance identified, percent of isolates” value is reported as 45%. In test [1] (bacteria lacking CTX-Ms), the “resistance identified, number of isolates” value was determined as 2 and the “resistance identified, percent of isolates” value is given as 2%.

`NCC[C@H](O)C(=O)N[C@@H]1C[C@H](N)[C@@H](O[C@H]2O[C@H](CN)[C@@H](O)[C@H](O)[C@H]2O)[C@H](O)[C@H]1O[C@H]1O[C@H](CO)[C@@H](O)[C@H](N)[C@H]1O` [amikacin]: in test [1] (CTX-M-producing bacteria), the “resistance identified, number of isolates” value is on record as “one”.

For `O=C1CN(/N=C/c2ccc([N+](=O)[O-])o2)C(=O)N1` [nitrofurantoin], in test [1] (CTX-M-producing bacteria), the “resistance identified, number of isolates” value is given as 1 and the “resistance identified, percent of isolates” value stood at 10%. Besides, in test [1] (bacteria lacking CTX-Ms), the “resistance identified, number of isolates” value is 2 and the “resistance identified, percent of isolates” value came to 2%.
